The source of these data is ChEMBL document CHEMBL3779789, “Tricyclic pyrazoles. Part 8. Synthesis, biological evaluation and modelling of tricyclic pyrazole carboxamides as potential CB2 receptor ligands with antagonist/inverse agonist properties” (Eur J Med Chem, 2016).

Test [1] has as its target T1, Cannabinoid receptor 1 (Homo sapiens, UniProt P21554). Kind of test: Displacement of [3H]CP55940 from human CB1 receptor expressed in HEK293-EBNA cell membrane incubated for 90 mins by liquid scintillation counting method. The format is cell membranes. Background: Displacement assays read how much labelled ligand stays bound in the presence of the test substance.
Test [2] concerns the target T2, Cannabinoid receptor 2 (Homo sapiens, UniProt P34972). The experiment in a line: Displacement of [3H]CP55940 from human CB2 receptor expressed in HEK293-EBNA cell membrane incubated for 90 mins by liquid scintillation counting method. The format is cell membranes.
Test [3] deals with T1, Cannabinoid receptor 1. Kind of test: Displacement of [3H]CP55940 from human CB1 receptor expressed in HEK293-EBNA cell membrane at 40 uM incubated for 90 mins by liquid scintillation counting method relative to control. The format is cell membranes.
Test [4] has as its target T2, Cannabinoid receptor 2. Kind of test: Displacement of [3H]CP55940 from human CB2 receptor expressed in HEK293-EBNA cell membrane at 40 uM incubated for 90 mins by liquid scintillation counting method relative to control. The format is cell membranes.
Test [5] in a line: Selectivity ratio of Ki for human CB1 receptor expressed in HEK293-EBNA cell membrane to Ki for human CB2 receptor expressed in HEK293-EBNA cell membrane. The format is cell-based.
Test [6] has as its target T2, Cannabinoid receptor 2. Kind of test: Antagonist/inverse agonist activity at human CB2 receptors expressed in human Chem4 cell membrane incubated for 30 mins by [35S]GTPgammaS binding assay. The format is functional, cell membranes. (In general: GTPγS is a poorly hydrolysed GTP analogue; its binding reports G protein activation.)
Test [7] deals with Cannabinoid receptor 2 (Mus musculus) (UniProt P47936). The experiment in a line: Antagonist/inverse agonist activity at CB2 receptor in mouse BV2 cells assessed as increase in LPS-induced PGE2 production at 10 fold Ki concentration incubated for 16 hrs by ELISA. Conditions: BV-2. The format is cell-based. In general terms: ELISA stands for enzyme-linked immunosorbent assay.
Test [8] shares this target. The experiment in a line: Antagonist/inverse agonist activity at CB2 receptor in mouse BV2 cells assessed as increase in LPS-induced PGE2 production at 10 fold Ki concentration incubated for 16 hrs by ELISA in presence of CB2 antagonist/inverse agonist SR144528. The format is cell-based. As to conditions: BV-2.
Test [9] has the same target. The experiment in a line: Antagonist activity at CB2 receptor in mouse BV2 cells assessed as reversal of WIN55,212-2-induced reduction of LPS-induced PGE2 production at 10 fold Ki concentration incubated for 16 hrs by ELISA. The format is cell-based. As to conditions: BV-2.

SMILES strings stand for the structures. The source made the active and inactive calls. The rule behind the calls is not given here.

Chain of Cannabinoid receptor 2 (Mus musculus) (P47936 whole entry): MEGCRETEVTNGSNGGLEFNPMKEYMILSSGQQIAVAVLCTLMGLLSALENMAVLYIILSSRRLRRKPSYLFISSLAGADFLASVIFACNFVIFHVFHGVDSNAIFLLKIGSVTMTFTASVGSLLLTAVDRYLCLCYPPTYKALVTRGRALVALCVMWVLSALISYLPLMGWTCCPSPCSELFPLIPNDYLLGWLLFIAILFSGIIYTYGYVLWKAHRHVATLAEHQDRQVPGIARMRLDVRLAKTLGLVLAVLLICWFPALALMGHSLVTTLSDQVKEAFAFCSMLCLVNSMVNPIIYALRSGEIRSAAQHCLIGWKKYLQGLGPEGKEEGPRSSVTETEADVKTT
T2 sequence (P34972 whole entry): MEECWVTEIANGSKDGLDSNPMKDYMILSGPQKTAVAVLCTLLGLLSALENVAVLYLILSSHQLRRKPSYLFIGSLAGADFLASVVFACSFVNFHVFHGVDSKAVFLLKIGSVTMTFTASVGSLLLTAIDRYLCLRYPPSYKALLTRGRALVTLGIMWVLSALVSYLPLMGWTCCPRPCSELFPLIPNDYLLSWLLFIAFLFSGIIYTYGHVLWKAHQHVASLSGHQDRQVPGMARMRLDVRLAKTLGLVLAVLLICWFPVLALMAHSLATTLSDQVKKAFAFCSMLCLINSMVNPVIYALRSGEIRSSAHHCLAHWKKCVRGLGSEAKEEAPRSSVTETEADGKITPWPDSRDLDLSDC
T1 sequence (P21554 whole entry): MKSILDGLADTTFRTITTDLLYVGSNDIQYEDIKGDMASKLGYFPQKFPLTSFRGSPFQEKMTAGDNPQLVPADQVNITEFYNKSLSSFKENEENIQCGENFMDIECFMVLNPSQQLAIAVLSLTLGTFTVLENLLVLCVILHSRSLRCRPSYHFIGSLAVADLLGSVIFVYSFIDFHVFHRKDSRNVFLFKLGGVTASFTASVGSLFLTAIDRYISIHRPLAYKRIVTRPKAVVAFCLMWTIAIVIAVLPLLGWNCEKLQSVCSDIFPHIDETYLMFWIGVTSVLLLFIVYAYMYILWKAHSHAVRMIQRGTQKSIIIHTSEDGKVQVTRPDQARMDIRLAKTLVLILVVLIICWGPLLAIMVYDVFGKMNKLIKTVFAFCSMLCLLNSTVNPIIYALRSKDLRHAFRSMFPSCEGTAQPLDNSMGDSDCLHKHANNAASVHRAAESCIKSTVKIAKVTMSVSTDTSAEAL

`CC1(C)C2CC[C@@](C)(C2)C1NC(=O)c1nn(-c2ccc(Cl)cc2Cl)c2c1ccc1cc(C3CC3)ccc12` (stereo partly drawn): the Ki on Cannabinoid receptor 1 [1] and on Cannabinoid receptor 2 [2] was over 40000 nM throughout. The Activity on Cannabinoid receptor 1 [3] and at Cannabinoid receptor 2 [4] was over 70% throughout.

Take `CC1(C)C2CC[C@@](C)(C2)C1NC(=O)c1nn(-c2ccc(Cl)cc2Cl)c2c1CCc1cc(C3CC3)ccc1-2` (stereo partly drawn): the inhibitory constant (Ki) (in general, the equilibrium dissociation constant of an inhibitor or competing ligand from its target) on Cannabinoid receptor 1 [1] was over 40000 nM; on Cannabinoid receptor 2 [2], 5520 nM. For the same compound, the Activity on Cannabinoid receptor 1 [3] and at Cannabinoid receptor 2 [4] was over 70% each time. In test [5], the Ratio Ki was over 7.25.

For the compound `O=C(NN1CCCC1)c1nn(-c2ccc(Cl)cc2Cl)c2c1Cc1cc(C3CC3)ccc1-2`, the figures for the Ki on Cannabinoid receptor 1 [1] and on Cannabinoid receptor 2 [2] were 4210 nM and 152 nM, respectively. For the same compound, the Activity at Cannabinoid receptor 1 [3] and on Cannabinoid receptor 2 [4] was over 70% throughout. Besides, in test [5], the Ratio Ki is 27.7.

Take `CC1(C)C2CCC(CNC(=O)c3nn(-c4ccc(Cl)cc4Cl)c4c3CCc3cc(C5CC5)ccc3-4)C1C2` (stereo not drawn): the inhibitory constant (Ki) on Cannabinoid receptor 1 [1] and at Cannabinoid receptor 2 [2] was over 10000 nM in each case. Moreover, the Activity at Cannabinoid receptor 1 [3] and on Cannabinoid receptor 2 [4] was over 70% throughout.

On to `O=C(NN1CCOCC1)c1nn(-c2ccc(Cl)cc2Cl)c2c1Cc1cc(C3CC3)ccc1-2`, for which the Ki was 4030 nM at Cannabinoid receptor 1 [1] and 198 nM on Cannabinoid receptor 2 [2]. The Activity at Cannabinoid receptor 1 [3] and at Cannabinoid receptor 2 [4] was over 70% throughout. Besides, in test [5], the Ratio Ki worked out at 20.4.

As for `O=C(NN1CCCC1)c1nn(-c2ccc(Cl)cc2Cl)c2c1ccc1cc(C3CC3)ccc12`, the Ki at Cannabinoid receptor 1 [1] and at Cannabinoid receptor 2 [2] was over 40000 nM in each case. Further, the Activity at Cannabinoid receptor 1 [3] and at Cannabinoid receptor 2 [4] was over 70% throughout.

As for `CC1(C)C2CC[C@@](C)(C2)C1NC(=O)c1nn(-c2ccc(Cl)cc2Cl)c2c1Cc1cc(C3CC3)ccc1-2` (stereo partly drawn), the Ki on Cannabinoid receptor 1 [1] is over 40000 nM; on Cannabinoid receptor 2 [2], 6 nM. In addition, the Activity on Cannabinoid receptor 1 [3] and on Cannabinoid receptor 2 [4] was over 70% throughout. In addition, the Ratio Ki in test [5] is over 6940. For the same compound, the IC50 (in general, the concentration needed to halve the response being measured) at Cannabinoid receptor 2 [6] was 80.4 nM. The result in [7] and in test [9] was Active. Further, the result in [8] was inactive.

`O=C(NN1CCCCC1)c1nn(-c2ccc(Cl)cc2Cl)c2c1CCc1cc(C3CC3)ccc1-2`: the Ki is over 40000 nM at Cannabinoid receptor 1 [1] and 143 nM at Cannabinoid receptor 2 [2]. The Activity at Cannabinoid receptor 1 [3] and at Cannabinoid receptor 2 [4] was over 70% in each case. Moreover, the Ratio Ki in [5] was over 280.

For the compound `O=C(NC12CC3CC(CC(C3)C1)C2)c1nn(-c2ccc(Cl)cc2Cl)c2c1Cc1cc(C3CC3)ccc1-2`, the Ki was over 10000 nM on Cannabinoid receptor 1 [1] and 4 nM at Cannabinoid receptor 2 [2]. Moreover, the Activity on Cannabinoid receptor 1 [3] and on Cannabinoid receptor 2 [4] was over 70% throughout. Besides, in test [5], the Ratio Ki is over 2230. Also, at Cannabinoid receptor 2 [6], the 50% inhibitory concentration (IC50) was 50.7 nM. Also, the outcome in test [7] and in test [8] was inactive. Besides, the result in [9] was Active.

On to `O=C(NN1CCCCC1)c1nn(-c2ccc(Cl)cc2Cl)c2c1Cc1cc(C3CCCCC3)ccc1-2`, for which the Ki at Cannabinoid receptor 1 [1] is over 10000 nM; at Cannabinoid receptor 2 [2], 509 nM. Moreover, the Activity on Cannabinoid receptor 1 [3] and at Cannabinoid receptor 2 [4] was over 70% each time. Further, in test [5], the Ratio Ki is over 19.6.

Turning to `O=C(NN1CCCCC1)c1nn(-c2ccc(Cl)cc2Cl)c2c1ccc1cc(C3CC3)ccc12`, the Ki at Cannabinoid receptor 1 [1] is over 40000 nM; at Cannabinoid receptor 2 [2] it was 825 nM. For the same compound, the Activity at Cannabinoid receptor 1 [3] and at Cannabinoid receptor 2 [4] was over 70% each time. Also, the Ratio Ki in test [5] is over 48.5.

Regarding `CC1(C)[C@@H]2CC[C@]1(C)[C@H](NC(=O)c1nn(-c3ccc(Cl)cc3Cl)c3c1Cc1cc(C4CC4)ccc1-3)C2`, the inhibitory constant (Ki) is over 40000 nM at Cannabinoid receptor 1 [1] and 38 nM at Cannabinoid receptor 2 [2]. The Activity at Cannabinoid receptor 1 [3] and at Cannabinoid receptor 2 [4] was over 70% throughout. Further, in test [5], the Ratio Ki was over 1060. Moreover, the IC50 at Cannabinoid receptor 2 [6] turned out to be 26.9 nM. The result in test [7] was inactive. Also, the outcome in [8] and in [9] was Active.

For `O=C(c1nn(-c2ccc(Cl)cc2Cl)c2c1Cc1cc(C3CC3)ccc1-2)N1CCCCC1`, the results for the Ki at Cannabinoid receptor 1 [1] and at Cannabinoid receptor 2 [2] were over 10000 nM and 414 nM, respectively. Besides, the Activity at Cannabinoid receptor 1 [3] and at Cannabinoid receptor 2 [4] was over 70% in each case. Further, in [5], the Ratio Ki was over 24.2.

As to `O=C(NN1CCCC1)c1nn(-c2ccc(Cl)cc2Cl)c2c1Cc1cc(C3CCCCC3)ccc1-2`, the Ki on Cannabinoid receptor 1 [1] is over 10000 nM; at Cannabinoid receptor 2 [2], 515 nM. Besides, the Activity on Cannabinoid receptor 1 [3] and on Cannabinoid receptor 2 [4] was over 70% each time. Besides, the Ratio Ki in test [5] is over 19.4.

As for `CC1(C)C2CC[C@@](C)(C2)C1NC(=O)c1nn(-c2ccc(Cl)cc2Cl)c2c1Cc1cc(C3CCCCC3)ccc1-2` (stereo partly drawn), the Ki on Cannabinoid receptor 1 [1] and at Cannabinoid receptor 2 [2] was over 10000 nM throughout. The Activity on Cannabinoid receptor 1 [3] and at Cannabinoid receptor 2 [4] was over 70% each time.

With `O=C(NN1CCCCC1)c1nn(-c2ccc(Cl)cc2Cl)c2c1Cc1cc(C3CC3)ccc1-2`, the figures for the inhibitory constant (Ki) on Cannabinoid receptor 1 [1] and on Cannabinoid receptor 2 [2] were 1850 nM and 69.4 nM, respectively. In addition, the Activity on Cannabinoid receptor 1 [3] and on Cannabinoid receptor 2 [4] was over 70% each time. In test [5], the Ratio Ki was found to be 26.7. The IC50 at Cannabinoid receptor 2 [6] turned out to be 294 nM.

Regarding `O=C(c1nn(-c2ccc(Cl)cc2Cl)c2c1ccc1cc(C3CC3)ccc12)N1CCCCC1`, the Ki on Cannabinoid receptor 1 [1] and on Cannabinoid receptor 2 [2] was over 40000 nM each time. The Activity at Cannabinoid receptor 1 [3] and on Cannabinoid receptor 2 [4] was over 70% in each case.
